Measured values taken from the supplement of paper PMC10290057.
Counter-ions that a name gives are not always drawn.

What was measured:
[1] = tested on: HCT116; assay: efficacy (fitted maximal change in viability relative to DMSO control); higher = less cytotoxic (negative = loss of viability); settings: 48 h
[2] = tested on: HCT116; assay: AC50 cell viability (CellTiter-Glo); higher = less potent; settings: 48 h
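Wherever AC50 cell viability (CellTiter-Glo) is given: HCT116 colorectal carcinoma cells screened at five concentrations per compound, luminescent viability scaled between DMSO wells and empty wells on each plate, curves fitted per compound.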
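Wherever efficacy (fitted maximal change in viability relative to DMSO control) is given: Luminescence-based viability readout, five doses per compound, normalized against on-plate DMSO and empty-well controls, followed by dose-response curve fitting for every drug.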

SMILES | efficacy [1] [%] | AC50 cell viability [2] [µM]
CO[C@@H](C(=O)N1Cc2[nH]nc(NC(=O)c3ccc(N4CCN(C)CC4)cc3)c2C1)c1ccccc1 [Danusertib] | -71.4 | 1.66
O=C(/C=C/c1cccnc1)NCCCCC1CCN(C(=O)c2ccccc2)CC1 [Daporinad] | -94.1 | 0.00525
CC(O)c1cc(C(=O)N[C@@H](C)Cn2ccc(-c3ccc(C#N)c(Cl)c3)n2)n[nH]1 (stereo partly drawn) [Darolutamide (ODM-201)] | -38.4 | 16.6
Cc1nc(Nc2ncc(C(=O)Nc3c(C)cccc3Cl)s2)cc(N2CCN(CCO)CC2)n1 [Dasatinib] | -81.1 | 14.8
C[C@@H]1C[C@H]2[C@@H]3\C=C(C)/C4=C/C5=C(C[C@]4(C)[C@H]3[C@@H](O)C[C@]2(C)[C@@]1(O)C(=O)CO)C=N[N]5C6=CC=CC=C6 [Deacetyl cortivazol] | -121 | 26.3
CC[C@@](C)(Nc1ccnc(-c2c[nH]c3ncccc23)n1)C(=O)NCC(F)(F)F [Decernotinib] | -56.7 | 20.9
NC\1=N\C(=O)N(\C=N1)[C@H]2C[C@H](O)[C@@H](CO)O2 [Decitabine] | -42.1 | 9.34
CNC(=O)c1ccc(Nc2ncc(C(F)(F)F)c(NCc3nccnc3N(C)[S+](C)(=O)[O-])n2)cc1 [Defactinib] | -71.4 | 1.86
O=C(O)c1ccc(-n2nc(-c3ccccc3O)nc2-c2ccccc2O)cc1 [Deferasirox] | -92.9 | 13.2
CC(=O)N(O)CCCCCNC(=O)CCC(=O)N(O)CCCCCNC(=O)CCC(=O)N(O)CCCCCN [Deferoxamine mesylate] | -95.9 | 9.34
CCC[C@H](NC(=O)/C(C#N)=C/c1cccc(Br)n1)c1ccccc1 [Degrasyn] | -104 | 26.3
COC1=CC2=C(C=C1OC)[C@H]3[C@@H](CO2)OC4=C(C=CC5=C4\C=C/C(C)(C)O5)C3=O [Deguelin] | -82.8 | 5.25
CC(C)C[C@H](NC(=O)[C@@H](NC(=O)c1cccc(-c2ccccc2)n1)[C@@H](C)O)B(O)O [Delanzomib] | -84.8 | 0.0362
c1ccc(Cn2c(-c3ccc(OCC(C4CCNCC4)n4c(-c5ccccc5)nc5ccccc54)cc3)nc3ccccc32)cc1 (stereo not drawn) [Deltarasin] | -89.7 | 9.34
CN[C@H]1CCC2=CC(=C(OC)C(=C2C/3=C/C=C(OC)\C(=O)/C=C13)OC)OC [Demecolcine] | -62.6 | 0.059
COCCNCCc1cccc(Nc2ncc3c(n2)-c2ccccc2[C@H](c2ccccc2F)C3)c1 [Derazantinib] | -95.8 | 10.5
CCCCCCC(C)(C)C1=CC2=C([C@H]3CC(=C/CC3C(C)(C)O2)\CO)C(=C1)O (stereo partly drawn) [Dexanabinol] | -93.9 | 8.33
ClC1=CC=C(C=C1)C(C#N)C2=C(Cl)C=C(C=C2Cl)N3\N=C/C(=O)NC3=O (stereo not drawn) [Diclazuril] | -56 | 23.5
CC/C(=C(/CC)c1ccc(O)cc1)c1ccc(O)cc1 [Diethylstilbestrol] | -47.2 | 18.6
C[C@H]1O[C@H](C[C@H](O)[C@@H]1O)O[C@H]2[C@@H](O)C[C@@H](O[C@@H]2C)O[C@H]3[C@@H](O)C[C@@H](O[C@@H]3C)O[C@H]4CC[C@@]5(C)[C@H](CC[C@@H]6[C@@H]5C[C@@H](O)[C@]7(C)[C@H](CC[C@]67O)C/8=C/C(=O)OC8)C4 [Digoxin] | -80.9 | 0.0525

SMILES | efficacy [1] [%] | AC50 cell viability [2] [µM]
C[C@@H]1CC[C@@]2(OC1)O[C@H]3C[C@H]4[C@@H]5C/C=C6/C[C@H](CC[C@]6(C)[C@H]5CC[C@]4(C)[C@H]3[C@@H]2C)O[C@@H]7O[C@H](CO)[C@@H](O[C@@H]8O[C@@H](C)[C@H](O)[C@@H](O)[C@H]8O)[C@H](O)[C@H]7O[C@@H]9O[C@@H](C)[C@H](O)[C@@H](O)[C@H]9O [Dioscin] | -101 | 5.25
CCN(CC)C(=S)SSC(=S)N(CC)CC [Disulfiram] | -101 | 16.6
O=C(C(c1ccccc1)c1ccccc1)N1CCN(CC(O)COc2cccc3ncccc23)CC1 (stereo not drawn) [Dofequidar] | -50.3 | 18.6
O=c1[nH]c2ccccc2n1CCCN1CCC(n2c(=O)[nH]c3cc(Cl)ccc32)CC1 [Domperidone] | -68 | 18.6
Cc1ccc(-n2nc(C(C)(C)C)cc2NC(=O)Nc2ccc(OCCN3CCOCC3)c3ccccc23)cc1 [Doramapimod] | -76.9 | 20.9
c1cc(-c2cnn3cc(-c4ccc(OCCN5CCCCC5)cc4)cnc23)ccn1 [Dorsomorphin] | -82.7 | 4.68
CN1CCN(CC1)C2=CC3=C([NH]C(=N3)C/4=C(\N)C5=C(F)C=CC=C5NC4=O)C=C2 [Dovitinib] | -106 | 8.33
C=C1/C(=C\C=C2/CCC[C@]3(C)[C@@H]([C@H](C)/C=C/[C@H](C)C(C)C)CC[C@@H]23)C[C@@H](O)C[C@@H]1O [Doxercalciferol] | -85.4 | 23.5
C[C@H]1O[C@H]([C@H](O)[C@@H]1O)N2\C=C(F)/C(=O)NC2=O [Doxifluridine] | -68.1 | 7.42
COc1cccc2c1C(=O)c1c(O)c3c(c(O)c1C2=O)C[C@@](O)(C(=O)CO)C[C@@H]3O[C@H]1C[C@H](N)[C@H](O)[C@H](C)O1 [Doxorubicin] | -75.3 | 0.372
CCCCc1oc2ccc(N[S+](C)(=O)[O-])cc2c1C(=O)c1ccc(OCCCN(CCCC)CCCC)cc1 [Dronedarone hydrochloride] | -102 | 8.33
Cc1cc(Cl)ccc1OCCCC(=O)NO [Droxinostat] | -57.1 | 20.9
C[C@H](NC1=C2N=C[NH]C2=NC=N1)C/3=C/C4=C(C(=CC=C4)Cl)C(=O)N3C5=CC=CC=C5 [Duvelisib] | -72 | 18.6
CCOc1cc2c(c(F)c1OCC)C(=N)N(CC(=O)c1cc(N3CCOCC3)c(OC)c(C(C)(C)C)c1)C2 [E5555] | -77 | 7.42
COc1ccc([S+](=O)([O-])Nc2cccnc2Nc2ccc(O)cc2)cc1 [E-7010] | -63.2 | 0.59
Cc1ccc(N[S+](=O)([O-])c2cccc(C#N)c2)c2[nH]cc(C#N)c12 [E-7820] | -53.2 | 0.417
Cc1ccccc1C(=O)c1ccc(Nc2ccc(Br)cc2N)cc1Cl [EO-1428] | -75.8 | 20.9
CS[C@H]1SC[C@@H]2C(=O)N(C)[C@H](C(C)C)C(=O)OC[C@H](NC(=O)c3cnc4ccccc4n3)C(=O)N[C@H](C)C(=O)N(C)[C@H]1C(=O)N(C)[C@H](C(C)C)C(=O)OC[C@H](NC(=O)c1cnc3ccccc3n1)C(=O)N[C@H](C)C(=O)N2C [Echinomycin] | -72.6 | 0.00372
Clc1ccc(COC(Cn2ccnc2)c2ccc(Cl)cc2Cl)cc1 (stereo not drawn) [Econazole nitrate] | -83.5 | 20.9
